Assay results published in ChEMBL document CHEMBL5335813, “Gausemycin Antibiotic Family Acts via Ca2+-Dependent Membrane Targeting” (2024).
Values after ≈ are worked out from the molar mass of the structure shown. Active and inactive are the calls of the source.

Columns and labels:
Staphylococcus aureus [1] = assay: Antimicrobial activity against Staphylococcus aureus ATCC 29213 assessed as microbial growth inhibition in presence of Mn2+ by susceptibility testing method; assay type: functional
Staphylococcus aureus [2] = assay: Antimicrobial activity against Staphylococcus aureus ATCC 29213 assessed as microbial growth inhibition by susceptibility testing method; assay type: functional
Staphylococcus aureus [3] = assay: Antimicrobial activity against Staphylococcus aureus ATCC 29213 assessed as microbial growth inhibition at pH 7.4 by susceptibility testing method; assay type: functional
Bacillus cereus = assay: Antimicrobial activity against Bacillus cereus X1 assessed as microbial growth inhibition in presence of Ca2+ by susceptibility testing method; assay type: functional, organism-based
Staphylococcus aureus [4] = assay: Antimicrobial activity against Staphylococcus aureus ATCC 29213 assessed as microbial growth inhibition in presence of (B4O7)2- by susceptibility testing method; assay type: functional
Lipid bilayer [5] = assay: Induction of pore formation in anionic TMoCL lipid bilayer membrane model at 1 to 100 ug/ml; details: dose 1-100 µg/ml
Lipid bilayer [6] = assay: Induction of pore formation in zwitter-ionic DOPC lipid bilayer membrane model at 1 to 100 ug/ml; details: dose 1-100 µg/ml
Staphylococcus aureus [7] = assay: Antimicrobial activity against Staphylococcus aureus ATCC 29213 assessed as microbial growth inhibition in presence of Ca2+ by susceptibility testing method; assay type: functional
Macrococcus caseolyticus = assay: Antimicrobial activity against Macrococcus caseolyticus assessed as microbial growth inhibition in presence of Ca2+ by susceptibility testing method; assay type: functional, organism-based; details: Macrococcoides caseolyticum
Lipid bilayer [8] = assay: Induction of pore formation in anionic DOPC/DOPG lipid bilayer membrane model at 1 to 100 ug/ml; details: dose 1-100 µg/ml
Staphylococcus aureus [9] = assay: Antimicrobial activity against Staphylococcus aureus ATCC 29213 assessed as microbial growth inhibition in presence of Cu2+ by susceptibility testing method; assay type: functional
Staphylococcus aureus [10] = assay: Antimicrobial activity against Staphylococcus aureus ATCC 29213 assessed as microbial growth inhibition at pH 9 by susceptibility testing method; assay type: functional
Lipid bilayer [11] = assay: Induction of pore formation in anionic TMoCL lipid bilayer membrane model assessed as pore-forming threshold concentration in presence of CaCl2
Lipid bilayer [12] = assay: Induction of pore formation in cationic DOPC/DOTAP lipid bilayer membrane model at 1 to 100 ug/ml; details: dose 1-100 µg/ml
Staphylococcus aureus [13] = assay: Antimicrobial activity against Staphylococcus aureus ATCC 29213 assessed as microbial growth inhibition at pH 7 by susceptibility testing method; assay type: functional
Lipid bilayer [14] = assay: Induction of pore formation in anionic DPhPG lipid bilayer membrane model at 1 to 100 ug/ml; details: dose 1-100 µg/ml
Lipid bilayer [15] = assay: Induction of pore formation in anionic DOPC/DOPG lipid bilayer membrane model at 1 to 100 ug/ml in presence of CaCl2; details: dose 1-100 µg/ml
Staphylococcus aureus [16] = assay: Antimicrobial activity against Staphylococcus aureus ATCC 29213 assessed as microbial growth inhibition measured after 18 hrs by CLSI based broth microdilution method; assay type: functional
Staphylococcus aureus [17] = assay: Antimicrobial activity against Staphylococcus aureus ATCC 29213 assessed as microbial growth inhibition at pH 5 by susceptibility testing method; assay type: functional
Escherichia coli [18] = assay: Antimicrobial activity against Escherichia coli BL21 (DE3) assessed as microbial growth inhibition in presence of Ca2+ by susceptibility testing method; assay type: functional, organism-based
Staphylococcus aureus [19] = assay: Antimicrobial activity against Staphylococcus aureus ATCC 29213 assessed as microbial growth inhibition in presence of Zn2+ by susceptibility testing method; assay type: functional
Staphylococcus aureus [20] = assay: Antimicrobial activity against Staphylococcus aureus ATCC 29213 assessed as microbial growth inhibition in presence of Mg2+ by susceptibility testing method; assay type: functional
Lipid bilayer [21] = assay: Induction of pore formation in anionic TOCL lipid bilayer membrane model at 1 to 100 ug/ml in presence of CaCl2; details: dose 1-100 µg/ml
Staphylococcus aureus [22] = assay: Antimicrobial activity against Staphylococcus aureus ATCC 29213 assessed as microbial growth inhibition at pH 8 by susceptibility testing method; assay type: functional
Micrococcus luteus = assay: Antimicrobial activity against Micrococcus luteus assessed as microbial growth inhibition in presence of Ca2+ by susceptibility testing method; assay type: functional, organism-based
Staphylococcus aureus [23] = assay: Antimicrobial activity against Staphylococcus aureus ATCC 29213 assessed as microbial growth inhibition in presence of K+ by susceptibility testing method; assay type: functional
Lipid bilayer [24] = assay: Induction of pore formation in anionic TOCL lipid bilayer membrane model at 1 to 100 ug/ml; details: dose 1-100 µg/ml
Lipid bilayer [25] = assay: Induction of pore formation in anionic TMoCL lipid bilayer membrane model assessed as pore-forming threshold concentration
Staphylococcus aureus [26] = assay: Antimicrobial activity against Staphylococcus aureus ATCC 29213 assessed as microbial growth inhibition in presence of Fe3+ by susceptibility testing method; assay type: functional
Lipid bilayer [27] = assay: Induction of pore formation in cationic DOPC/DOTAP lipid bilayer membrane model at 1 to 100 ug/ml in presence of CaCl2; details: dose 1-100 µg/ml
Staphylococcus aureus [28] = assay: Antimicrobial activity against Staphylococcus aureus ATCC 29213 assessed as microbial growth inhibition in presence of (H2PO4)-/(HPO4)2- by susceptibility testing method; assay type: functional
Staphylococcus aureus [29] = assay: Antimicrobial activity against Staphylococcus aureus ATCC 29213 assessed as microbial growth inhibition at pH 10 by susceptibility testing method; assay type: functional
Escherichia coli [30] = assay: Antimicrobial activity against Escherichia coli expressing delta-tolC/KanR assessed as microbial growth inhibition in presence of Ca2+ by susceptibility testing method; assay type: functional, organism-based
Staphylococcus aureus [31] = assay: Antimicrobial activity against Staphylococcus aureus ATCC 29213 assessed as microbial growth inhibition in presence of <=200 mM of (H2PO4)-/(HPO4)2- by susceptibility testing method; assay type: functional, organism-based
Lipid bilayer [32] = assay: Induction of pore formation in anionic DPhPG lipid bilayer membrane model at 1 to 100 ug/ml in presence of CaCl2; details: dose 1-100 µg/ml
Staphylococcus aureus [33] = assay: Antimicrobial activity against Staphylococcus aureus ATCC 29213 assessed as microbial growth inhibition in presence of Na+ by susceptibility testing method; assay type: functional
Staphylococcus aureus [34] = assay: Antimicrobial activity against Staphylococcus aureus ATCC 29213 assessed as microbial growth inhibition at pH 6 by susceptibility testing method; assay type: functional
Pseudomonas aeruginosa = assay: Antimicrobial activity against Pseudomonas aeruginosa assessed as microbial growth inhibition in presence of Ca2+ by susceptibility testing method; assay type: functional, organism-based
Staphylococcus aureus [35] = assay: Antimicrobial activity against Staphylococcus aureus ATCC 29213 assessed as microbial growth inhibition in presence of (HCO3)- by susceptibility testing method; assay type: functional
Staphylococcus aureus [36] = assay: Antimicrobial activity against Staphylococcus aureus ATCC 29213 assessed as microbial growth inhibition in presence of (CH3CO2)- by susceptibility testing method; assay type: functional
Staphylococcus aureus [37] = assay: Antimicrobial activity against Staphylococcus aureus ATCC 29213 assessed as microbial growth inhibition at pH 5 to 6 by susceptibility testing method; assay type: functional, organism-based

Compound	Activity (Lipid bilayer [5])	Activity (Lipid bilayer [6])	Activity (Lipid bilayer [8])	Activity (Lipid bilayer [11])	Activity (Lipid bilayer [12])	Activity (Lipid bilayer [14])	Activity (Lipid bilayer [15])	MIC (Staphylococcus aureus [16])	Activity (Lipid bilayer [21])	Activity (Lipid bilayer [24])	Activity (Lipid bilayer [25])	Activity (Lipid bilayer [27])	Activity (Lipid bilayer [32])	inhibition (Bacillus cereus)	inhibition (Macrococcus caseolyticus)	inhibition (Escherichia coli [18])	inhibition (Micrococcus luteus)	inhibition (Escherichia coli [30])	Activity (Staphylococcus aureus [31])	inhibition (Pseudomonas aeruginosa)	further results
CNCCC(=O)NCCC[C@H](NC(=O)CCNC(=O)/C=C\C=C\C(C)C)C(=O)NC(CC(O)c1ccccc1)C(=O)NC(C(=O)N[C@@H](Cc1ccc(OC2OC[C@H](O)[C@H](O)[C@H]2O)cc1)C(=O)NC1C(=O)N[C@H](CC(C)C)C(=O)N[C@@H](CC(=O)O)C(=O)NCC(=O)N[C@@H](CO)C(=O)NCC(=O)N[C@@H](CC(=O)c2ccc(Cl)cc2N)C(=O)N[C@@H](C)C(=O)N2CCC[C@H]2C(=O)NC1C)C(O)CC(=O)O (some centres not stated)	–	–	–	–	–	–	–	4 µg/mL (≈ 2.07 µM)	–	–	–	–	–	–	–	–	–	–	–	–	–
NCC[C@H](O)C(=O)N[C@@H]1C[C@H](N)[C@@H](O[C@H]2O[C@H](CN)[C@@H](O)[C@H](O)[C@H]2O)[C@H](O)[C@H]1O[C@H]1O[C@H](CO)[C@@H](O)[C@H](N)[C@H]1O	–	–	–	–	–	–	–	–	–	–	–	–	–	–	–	–	–	–	–	–	growth inhibition (GI) (Staphylococcus aureus [37]): Active
CC(C)/C=C/C=C\C(=O)NCCC(=O)N[C@@H](CCCNC(=O)CCN)C(=O)NC(CC(O)c1ccccc1)C(=O)NC(C(=O)N[C@@H](Cc1ccc(O)cc1)C(=O)NC1C(=O)N[C@H](CC(C)C)C(=O)N[C@@H](CC(=O)O)C(=O)NCC(=O)N[C@@H](CO)C(=O)NCC(=O)N[C@@H](CC(=O)c2ccc(Cl)cc2N)C(=O)N[C@@H](C)C(=O)N2CCC[C@H]2C(=O)NC1C)C(O)CC(=O)O (some centres not stated)	–	–	–	–	–	–	–	8 µg/mL (≈ 4.48 µM)	–	–	–	–	–	–	–	–	–	–	–	–	–

More lines, in order of falling MIC (Staphylococcus aureus [16]), values ahead:

Activity (Lipid bilayer [5])	Activity (Lipid bilayer [6])	Activity (Lipid bilayer [8])	Activity (Lipid bilayer [11])	Activity (Lipid bilayer [12])	Activity (Lipid bilayer [14])	Activity (Lipid bilayer [15])	MIC (Staphylococcus aureus [16])	Activity (Lipid bilayer [21])	Activity (Lipid bilayer [24])	Activity (Lipid bilayer [25])	Activity (Lipid bilayer [27])	Activity (Lipid bilayer [32])	Compound	inhibition (Bacillus cereus)	inhibition (Macrococcus caseolyticus)	inhibition (Escherichia coli [18])	inhibition (Micrococcus luteus)	inhibition (Escherichia coli [30])	Activity (Staphylococcus aureus [31])	inhibition (Pseudomonas aeruginosa)	further results
Active	inactive	Active	7 µg/mL	Active	Active	Active	2 µg/mL (≈ 1.04 µM)	Active	Active	10 µg/mL	Active	Active	CC(C)/C=C/C=C\C(=O)NCCC(=O)N[C@@H](CCCNC(=O)CCN)C(=O)NC(CC(O)c1ccccc1)C(=O)NC(C(=O)N[C@@H](Cc1ccc(OC2OC[C@H](O)[C@H](O)[C@H]2O)cc1)C(=O)NC1C(=O)N[C@H](CC(C)C)C(=O)N[C@@H](CC(=O)O)C(=O)NCC(=O)N[C@@H](CO)C(=O)NCC(=O)N[C@@H](CC(=O)c2ccc(Cl)cc2N)C(=O)N[C@@H](C)C(=O)N2CCC[C@H]2C(=O)NC1C)C(O)CC(=O)O (some centres not stated)	Active	Active	inactive	Active	inactive	inactive	inactive	growth inhibition (GI) (Staphylococcus aureus [1]): Active; growth inhibition (GI) (Staphylococcus aureus [7]): Active; growth inhibition (GI) (Staphylococcus aureus [9]): Active; growth inhibition (GI) (Staphylococcus aureus [37]): Active; growth inhibition (GI) (Staphylococcus aureus [19]): Active; growth inhibition (GI) (Staphylococcus aureus [20]): Active; growth inhibition (GI) (Staphylococcus aureus [23]): Active; growth inhibition (GI) (Staphylococcus aureus [26]): Active; growth inhibition (GI) (Staphylococcus aureus [33]): Active
Active	inactive	Active	7 µg/mL	Active	Active	Active	1 µg/mL (≈ 0.541 µM)	Active	Active	10 µg/mL	Active	Active	CC(C)/C=C/C=C\C(=O)NCCC(=O)N[C@@H](CCCN)C(=O)NC(CC(O)c1ccccc1)C(=O)NC(C(=O)N[C@@H](Cc1ccc(OC2OC[C@H](O)[C@H](O)[C@H]2O)cc1)C(=O)NC1C(=O)N[C@H](CC(C)C)C(=O)N[C@@H](CC(=O)O)C(=O)NCC(=O)N[C@@H](CO)C(=O)NCC(=O)N[C@@H](CC(=O)c2ccc(Cl)cc2N)C(=O)N[C@@H](C)C(=O)N2CCC[C@H]2C(=O)NC1C)C(O)CC(=O)O (some centres not stated)	Active	Active	inactive	Active	inactive	inactive	inactive	MIC (Staphylococcus aureus [1]): 1 µg/mL; MIC (Staphylococcus aureus [2]): 1 µg/mL (≈ 0.541 µM); MIC (Staphylococcus aureus [3]): 1 µg/mL (≈ 0.541 µM); MIC (Staphylococcus aureus [4]): 1 µg/mL; MIC (Staphylococcus aureus [7]): 0.125 µg/mL; MIC (Staphylococcus aureus [9]): 1 µg/mL; MIC (Staphylococcus aureus [10]): 0.5 µg/mL (≈ 0.271 µM); MIC (Staphylococcus aureus [13]): 2 µg/mL (≈ 1.08 µM); MIC (Staphylococcus aureus [17]): 4 µg/mL (≈ 2.17 µM); MIC (Staphylococcus aureus [19]): 1 µg/mL; MIC (Staphylococcus aureus [20]): 1 µg/mL; MIC (Staphylococcus aureus [22]): 1 µg/mL (≈ 0.541 µM); MIC (Staphylococcus aureus [23]): 1 µg/mL; MIC (Staphylococcus aureus [26]): 1 µg/mL; MIC (Staphylococcus aureus [28]): 4 µg/mL; MIC (Staphylococcus aureus [29]): 0.25 µg/mL (≈ 0.135 µM); MIC (Staphylococcus aureus [33]): 1 µg/mL; MIC (Staphylococcus aureus [34]): 4 µg/mL (≈ 2.17 µM); MIC (Staphylococcus aureus [35]): 0.5 µg/mL; MIC (Staphylococcus aureus [36]): 2 µg/mL
